# “Also recorded” adds a separate entry of the source.
# System: FLJXXXXX-derived proteins
# Experiment: SEC/MS spin column interaction analysis of FLJXXXXX-derived proteins and various compounds (Tables 30-1 to 30-4)
# Format: binding, human
# Conditions: not given
row,SMILES,FLJ No of the derived protein with which the compound was judged to exhibit a concentration-dependent interaction
1,CCCSc1ccc2nc(NC(=O)OC)[nH]c2c1 [albendazole],FLJ35353

# Same assay, conditions: SEC spin column filtrate, spectral intensity increased with doses of compound and protein
row,SMILES,FLJ No of the derived protein with which the compound was judged to exhibit a concentration-dependent interaction
1,Cl.Cl.OCCN1CCN(CCC=C2c3ccccc3Sc3ccc(C(F)(F)F)cc32)CC1 (mixture of isomers) [flupentixol],FLJ37909
2,c1ccc2c(c1)CCCc1cc(NCCN3CCOCC3)nnc1-2 [SR-95639A],FLJ36526
3,CC(=O)c1ccc2c(c1)N(CCCN(C)C)c1ccccc1S2 [acetopromazine],FLJ36526
4,CC(CN(C)C)CN1c2ccccc2Sc2ccccc21 (centres unmarked) [alimemazine],FLJ37909
5,NCC[C@H](O)C(=O)N[C@@H]1C[C@H](N)[C@@H](O[C@H]2O[C@H](CN)[C@@H](O)[C@H](O)[C@H]2O)[C@H](O)[C@H]1O[C@H]1O[C@H](CO)[C@@H](O)[C@H](N)[C@H]1O [amikacin],FLJ37909
6,CCCCc1oc2ccccc2c1C(=O)c1cc(I)c(OCCN(CC)CC)c(I)c1 [amiodarone],FLJ37909
7,O=c1cc(-c2ccc(O)cc2)oc2cc(O)cc(O)c12 [apigenin],FLJ39553
8,CCC(C)C1O[C@]2(C=C[C@@H]1C)C[C@@H]1CC(C/C=C(\C)[C@@H](OC3C[C@H](OC)[C@@H](OC4C[C@H](OC)[C@@H](O)[C@H](C)O4)[C@H](C)O3)[C@@H](C)/C=C/C=C3\COC4[C@H](O)C(C)=CC(C(=O)O1)[C@]34O)O2 (some centres unmarked) [avermectin B1A],FLJ39553
9,COc1c(O)cc2c(c1O)[C@@H]1O[C@H](CO)[C@@H](O)[C@H](O)[C@H]1OC2=O [bergenin],FLJ39553
10,CCCCC[C@](C)(O)/C=C/[C@@H]1[C@@H](C/C=C\CCCC(=O)O)[C@@H](O)C[C@H]1O [carboprost],FLJ39553
11,O=C(O)CCCc1ccc(N(CCCl)CCCl)cc1 [chlorambucil],FLJ23466
12,[H]/N=C(\N/C(=N/[H])NCCCCCCNC(=N)NC(=N)Nc1ccc(Cl)cc1)Nc1ccc(Cl)cc1 [chlorhexidine],FLJ37909
13,CN(C)CCCN1c2ccccc2Sc2ccc(Cl)cc21 [chlorpromazine],FLJ35353
14,C=C[C@H]1C[N@@]2CC[C@H]1C[C@@H]2[C@@H](O)c1ccnc2ccccc12 [cinchonine],FLJ39553
15,CN1C(=O)CC(=O)N(c2ccccc2)c2cc(Cl)ccc21 [clobazam],FLJ35353
16,CC(C)/N=c1\cc2n(-c3ccc(Cl)cc3)c3ccccc3nc-2cc1Nc1ccc(Cl)cc1 [clofazimine],FLJ35353
17,CCN(CC)CCOc1ccc(C(=C(Cl)c2ccccc2)c2ccccc2)cc1 [clomiphene],FLJ37909
18,CN(C)[C@@H]1C(O)=C(C(N)=O)C(=O)[C@@]2(O)C(O)=C3C(=O)c4c(O)ccc(Cl)c4[C@@H](O)[C@H]3C[C@@H]12 [demeclocycline],FLJ39553
19,CC(C)[C@@]1(NC(=O)[C@@H]2C[C@@H]3c4cccc5[nH]cc(c45)C[C@H]3N(C)C2)O[C@@]2(O)[C@@H]3CCCN3C(=O)[C@H](Cc3ccccc3)N2C1=O [dihydroergocristine],FLJ37909
20,CN1C[C@H](C(=O)N[C@]2(C)O[C@@]3(O)[C@@H]4CCCN4C(=O)[C@H](Cc4ccccc4)N3C2=O)C[C@@H]2c3cccc4[nH]cc(c34)C[C@H]21 [dihydroergotamine],FLJ37909
21,C[N+]1(C)CCC(=C(c2ccccc2)c2ccccc2)CC1 [diphemanil],FLJ36526
22,Cc1c(N(C)CS(=O)(=O)[O-])c(=O)n(-c2ccccc2)n1C.[Na+] [dipyrone],FLJ35353
23,O=c1[nH]c2ccccc2n1CCCN1CCC(n2c(=O)[nH]c3cc(Cl)ccc32)CC1 [domperidone],FLJ20571
24,COc1cc2nc(N3CCN(C(=O)C4COc5ccccc5O4)CC3)nc(N)c2cc1OC (centres unmarked) [doxazosin],FLJ37909
25,CC(=O)[C@H]1CC[C@H]2[C@@H]3C=CC4=CC(=O)CC[C@@]4(C)[C@@H]3CC[C@]12C [dydrogesterone],FLJ35353
26,Cc1c2ccncc2c(C)c2c1[nH]c1ccccc12 [ellipticine],FLJ35353
27,CC[C@H]1CN2CCc3cc(OC)c(OC)cc3[C@@H]2C[C@@H]1C[C@H]1NCCc2cc(OC)c(OC)cc21 [emetine],FLJ37909
28,CCN1C(=O)NC(c2ccccc2)C1=O (centres unmarked) [ethotoin],FLJ38531

row,SMILES,FLJ No of the derived protein with which the compound was judged to exhibit a concentration-dependent interaction
1,CCOC(=O)C1N=C(c2ccccc2F)c2cc(Cl)ccc2NC1=O (centres unmarked) [ethyl loflazepate],FLJ35353
2,COC(=O)Nc1nc2ccc(Sc3ccccc3)cc2[nH]1 [fenbendazole],FLJ37909
3,CC1CCc2cc(F)cc3c(=O)c(C(=O)O)cn1c23 (centres unmarked) [flumequine],FLJ38531
4,Fc1ccc(C(c2ccc(F)cc2)N2CCN(C/C=C/c3ccccc3)CC2)cc1 [flunarizine],FLJ37909
5,Cc1cnc(C(=O)NCCc2ccc(S(=O)(=O)NC(=O)NC3CCCCC3)cc2)cn1 [glipizide],FLJ35353
6,COc1ccc2c3c([nH]c2c1)C(C)=NCC3 [harmaline],FLJ39553
7,O=C1CNC(=O)N1 [hydantoin],FLJ35914
8,CC(=O)[C@@]1(O)CC[C@H]2[C@@H]3CCC4=CC(=O)CC[C@]4(C)[C@H]3CC[C@@]21C [hydroxyprogesterone],FLJ37909
9,Cc1cccc(C)c1NC(=O)CN1CCN(CCCC(c2ccc(F)cc2)c2ccc(F)cc2)CC1 [lidoflazine],FLJ37909
10,NCCCC[C@H](N[C@@H](CCc1ccccc1)C(=O)O)C(=O)N1CCC[C@H]1C(=O)O [lisinopril],FLJ40760
11,NCc1ccc(S(N)(=O)=O)cc1 [mafenide],FLJ21841
12,Cc1cccc(Nc2ccccc2C(=O)O)c1C [mefenamic acid],FLJ35353
13,CN1CCCCC1CCN1c2ccccc2Sc2ccc([S+](C)[O-])cc21 (centres unmarked) [mesoridazine],FLJ11211
14,CN1C[C@H](CNC(=O)OCc2ccccc2)C[C@@H]2c3cccc4c3c(cn4C)C[C@H]21 [metergoline],FLJ37909
15,CN1CCCC(CC2c3ccccc3Sc3ccccc32)C1 (centres unmarked) [methixene],FLJ35353
16,COc1ccc2[nH]c3c(c2c1)CCN=C3C [methoxy-6-harmalan],FLJ39553
17,Cc1cc(C(C)(C)CC(C)(C)C)ccc1OCCOCC[N+](C)(C)Cc1ccccc1.[Cl-] [methylbenzethonium chloride],FLJ20571; also recorded: FLJ35353
18,Cc1cc2c(cc1S(N)(=O)=O)S(=O)(=O)CCC2 [meticrane],FLJ39553
19,CC#C[C@]1(O)CC[C@H]2[C@@H]3CCC4=CC(=O)CCC4=C3[C@@H](c3ccc(N(C)C)cc3)C[C@@]21C [mifepristone],FLJ22317
20,CCOc1ccc2ccccc2c1C(=O)N[C@@H]1C(=O)N2[C@@H]1SC(C)(C)[C@@H]2C(=O)O [nafcillin],FLJ39553
21,"CC1CCCC(C)N1 (stereo not drawn) [nanofin (cis), nanofin]",FLJ42665
22,O=C1CN=C(c2ccccc2)c2cc(Cl)ccc2N1 [nordiazepam],FLJ35353
23,CN(C(=O)CN(CCO)CC(=O)N(C)C(C)(C)Cc1ccccc1)C(C)(C)Cc1ccccc1 [oxethazaine],FLJ37909
24,CCn1cc(C(=O)O)c(=O)c2cc3c(cc21)OCO3 [oxolinic acid],FLJ37909
25,CC(=O)O[C@H]1C(=O)[C@@]2(C)[C@H]([C@H](OC(=O)c3ccccc3)[C@]3(O)C[C@H](OC(=O)[C@H](O)[C@@H](NC(=O)c4ccccc4)c4ccccc4)C(C)=C1C3(C)C)[C@]1(OC(C)=O)CO[C@@H]1C[C@@H]2O [paclitaxel],FLJ39553
26,COc1cc2c(cc1OC)-c1cc3ccc(OC)c(OC)c3c[n+]1CC2 [palmatine],FLJ39553
27,C[C@@H]1C[C@H]2[C@@H]3C[C@H](F)C4=CC(=O)C=C[C@]4(C)[C@H]3[C@@H](O)C[C@]2(C)[C@@]1(O)C(=O)CO [paramethasone],FLJ39553

# Reference: patent publication US20090143285A1, “TARGET PROTEIN AND TARGET GENE FOR DRUG DISCOVERY AND SCREENING METHOD” (REVERSE PROTEOMICS RESEARCH INSTITUTE CO., LTD., priority 2005, published 2009)
